Assay results taken from ChEMBL document CHEMBL5143617 (Eur J Med Chem, 2022).
Converted amounts (≈) assume the structure as drawn.

Experiments:
[1] = Tmax in mouse frontal cortex at 0.625 mg/kg, ip by LC/ESI-MS/MS analysis; assay type: ADME, organism-based
[2] = Plasma protein binding in human by LC-MS/MS analysis; assay type: ADME, cell-free; conditions: read-out: PPB (converted)
[3] = Tmax in mouse hippocampus at 0.625 mg/kg, ip by LC/ESI-MS/MS analysis; assay type: ADME, organism-based
[4] = biological target: T1, 5-hydroxytryptamine receptor 1A (Homo sapiens, UniProt P08908); test: Agonist activity at human 5-HT1A receptor expressed in U2OS cells assessed as beta-arrestin recruitment incubated for 5 hrs by Tango assay; assay type: functional, cell-based
T1 sequence (P08908 whole entry): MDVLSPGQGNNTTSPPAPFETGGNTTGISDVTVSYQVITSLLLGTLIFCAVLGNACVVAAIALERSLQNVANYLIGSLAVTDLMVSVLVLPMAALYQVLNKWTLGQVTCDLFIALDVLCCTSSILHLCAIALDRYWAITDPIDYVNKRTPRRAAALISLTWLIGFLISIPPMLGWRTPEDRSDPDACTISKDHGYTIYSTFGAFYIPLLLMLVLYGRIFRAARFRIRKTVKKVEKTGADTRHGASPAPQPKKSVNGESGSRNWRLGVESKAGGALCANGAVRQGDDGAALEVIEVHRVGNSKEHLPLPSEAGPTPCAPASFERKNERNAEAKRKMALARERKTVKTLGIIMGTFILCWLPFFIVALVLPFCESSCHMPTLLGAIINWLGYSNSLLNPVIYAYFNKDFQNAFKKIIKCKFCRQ

[5] = Cmax in mouse frontal cortex at 0.625 mg/kg, ip by LC/ESI-MS/MS analysis; assay type: ADME, organism-based; set-up: dose 0.625 mg/kg, route ip
[6] = Cmax in mouse hippocampus at 0.625 mg/kg, ip by LC/ESI-MS/MS analysis; assay type: ADME, organism-based; set-up: dose 0.625 mg/kg, route ip
[7] = Apparent volume of distribution in mouse plasma at 0.625 mg/kg, ip measured up to 480 mins by LC/ESI-MS/MS analysis; assay type: ADME, organism-based
[8] = Tmax in mouse striatum at 0.625 mg/kg, ip by LC/ESI-MS/MS analysis; assay type: ADME, organism-based
[9] = Aqueous solubility of compound in PBS buffer at pH 7.4 by UV absorbance based analysis; assay type: physicochemical
[10] = Metabolic stability in human liver microsomes assessed as half life
D(2) dopamine receptor = D(2) dopamine receptor (Homo sapiens, UniProt P14416); test: Binding affinity to dopamine D2 receptor (unknown origin)
[11] = Efflux ratio of apparent permeability across basolateral to apical membrane to apical to basolateral membrane in human Caco-2 cells; assay type: ADME, cell-based
Mus musculus = test: Antidepressant activity in Swiss albino mouse assessed as reduction in immobility time at 0.625 mg/kg, ip measured for last 4 mins of 6 mins test by forced swim test; assay type: functional; set-up: scale not given: the % may be the effect or the level left; conditions: 0.1 h
[12] = biological target: T1, 5-hydroxytryptamine receptor 1A; test: Displacement of [3H]-[…] from human 5-HT1A receptor expressed in CHO-K1 cells membrane by scintillation counter analysis; assay type: cell membranes
[13] = Cmax in mouse plasma at 0.625 mg/kg, ip measured up to 480 mins by LC/ESI-MS/MS analysis; assay type: ADME, organism-based; set-up: time < 480 min, dose 0.625 mg/kg, route ip
[14] = biological target: T2, Adrenergic receptor alpha-1 (Homo sapiens, UniProt P35348+P25100+P35368); test: Binding affinity to adrenergic alpha 1 receptor (unknown origin); assay type: protein assay
T2 sequence (P35348 whole entry): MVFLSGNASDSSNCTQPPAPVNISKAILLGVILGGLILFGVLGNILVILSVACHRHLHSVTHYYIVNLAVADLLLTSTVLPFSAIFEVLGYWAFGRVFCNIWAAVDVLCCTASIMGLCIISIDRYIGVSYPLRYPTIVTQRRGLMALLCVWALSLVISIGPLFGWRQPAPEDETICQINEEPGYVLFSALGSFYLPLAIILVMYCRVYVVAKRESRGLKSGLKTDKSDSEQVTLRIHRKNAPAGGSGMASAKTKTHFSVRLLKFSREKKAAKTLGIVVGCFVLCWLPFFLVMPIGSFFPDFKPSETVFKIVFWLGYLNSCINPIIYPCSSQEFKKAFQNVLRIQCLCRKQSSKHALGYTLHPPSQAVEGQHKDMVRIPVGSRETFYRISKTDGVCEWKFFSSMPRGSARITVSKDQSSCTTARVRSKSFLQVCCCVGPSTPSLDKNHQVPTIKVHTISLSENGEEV
T2 sequence (P25100 whole entry): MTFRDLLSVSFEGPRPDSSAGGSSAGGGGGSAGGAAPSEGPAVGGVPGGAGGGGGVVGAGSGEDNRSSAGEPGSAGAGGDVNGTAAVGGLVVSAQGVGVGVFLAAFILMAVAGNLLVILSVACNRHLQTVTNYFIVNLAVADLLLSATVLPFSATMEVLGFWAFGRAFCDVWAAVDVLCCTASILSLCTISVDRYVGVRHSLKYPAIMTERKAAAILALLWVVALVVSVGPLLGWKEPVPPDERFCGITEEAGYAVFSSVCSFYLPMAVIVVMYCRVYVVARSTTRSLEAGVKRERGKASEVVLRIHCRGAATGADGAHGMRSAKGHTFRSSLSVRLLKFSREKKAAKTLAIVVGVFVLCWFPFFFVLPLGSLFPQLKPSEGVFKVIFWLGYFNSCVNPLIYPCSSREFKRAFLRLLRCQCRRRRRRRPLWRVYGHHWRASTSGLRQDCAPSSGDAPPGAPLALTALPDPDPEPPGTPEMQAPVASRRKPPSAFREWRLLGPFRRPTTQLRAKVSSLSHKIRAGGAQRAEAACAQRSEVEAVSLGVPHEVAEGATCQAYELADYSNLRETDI
T2 sequence (P35368 whole entry): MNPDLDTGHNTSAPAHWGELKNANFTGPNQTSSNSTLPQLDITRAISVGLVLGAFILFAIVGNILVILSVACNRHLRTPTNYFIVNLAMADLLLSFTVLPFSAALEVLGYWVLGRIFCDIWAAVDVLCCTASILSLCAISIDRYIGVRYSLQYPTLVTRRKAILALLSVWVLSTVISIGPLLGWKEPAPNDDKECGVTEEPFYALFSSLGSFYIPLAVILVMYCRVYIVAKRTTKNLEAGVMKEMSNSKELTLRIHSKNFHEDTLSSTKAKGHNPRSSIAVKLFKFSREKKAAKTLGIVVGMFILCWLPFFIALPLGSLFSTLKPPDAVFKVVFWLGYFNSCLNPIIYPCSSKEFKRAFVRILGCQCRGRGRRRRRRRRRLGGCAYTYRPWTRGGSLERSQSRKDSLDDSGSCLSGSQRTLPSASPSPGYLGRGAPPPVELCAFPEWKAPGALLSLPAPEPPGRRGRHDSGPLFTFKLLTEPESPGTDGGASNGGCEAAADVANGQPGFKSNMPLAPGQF

Erythrocyte = test: Hemolytic activity in human erythrocytes at 10^-6 to 10^-5 M after 30 mins by spectrophotometry; assay type: toxicity, cell-based; conditions: 0.5 h, dose lower 1e-06 µmol/L, dose upper 1e-05 µmol/L
[15] = biological target: cAMP and cAMP-inhibited cGMP 3',5'-cyclic phosphodiesterase 10A (Homo sapiens, UniProt Q9Y233); test: Inhibition of PDE10A (unknown origin) at 10 uM preincubated for 20 mins followed by substrate addition and measured after 1 hr by PEDlight AMP detection reagent based luminescence assay relative to control; conditions: time 80.0 min
cAMP and cAMP-inhibited cGMP 3',5'-cyclic phosphodiesterase 10A, sequence (Q9Y233 whole entry): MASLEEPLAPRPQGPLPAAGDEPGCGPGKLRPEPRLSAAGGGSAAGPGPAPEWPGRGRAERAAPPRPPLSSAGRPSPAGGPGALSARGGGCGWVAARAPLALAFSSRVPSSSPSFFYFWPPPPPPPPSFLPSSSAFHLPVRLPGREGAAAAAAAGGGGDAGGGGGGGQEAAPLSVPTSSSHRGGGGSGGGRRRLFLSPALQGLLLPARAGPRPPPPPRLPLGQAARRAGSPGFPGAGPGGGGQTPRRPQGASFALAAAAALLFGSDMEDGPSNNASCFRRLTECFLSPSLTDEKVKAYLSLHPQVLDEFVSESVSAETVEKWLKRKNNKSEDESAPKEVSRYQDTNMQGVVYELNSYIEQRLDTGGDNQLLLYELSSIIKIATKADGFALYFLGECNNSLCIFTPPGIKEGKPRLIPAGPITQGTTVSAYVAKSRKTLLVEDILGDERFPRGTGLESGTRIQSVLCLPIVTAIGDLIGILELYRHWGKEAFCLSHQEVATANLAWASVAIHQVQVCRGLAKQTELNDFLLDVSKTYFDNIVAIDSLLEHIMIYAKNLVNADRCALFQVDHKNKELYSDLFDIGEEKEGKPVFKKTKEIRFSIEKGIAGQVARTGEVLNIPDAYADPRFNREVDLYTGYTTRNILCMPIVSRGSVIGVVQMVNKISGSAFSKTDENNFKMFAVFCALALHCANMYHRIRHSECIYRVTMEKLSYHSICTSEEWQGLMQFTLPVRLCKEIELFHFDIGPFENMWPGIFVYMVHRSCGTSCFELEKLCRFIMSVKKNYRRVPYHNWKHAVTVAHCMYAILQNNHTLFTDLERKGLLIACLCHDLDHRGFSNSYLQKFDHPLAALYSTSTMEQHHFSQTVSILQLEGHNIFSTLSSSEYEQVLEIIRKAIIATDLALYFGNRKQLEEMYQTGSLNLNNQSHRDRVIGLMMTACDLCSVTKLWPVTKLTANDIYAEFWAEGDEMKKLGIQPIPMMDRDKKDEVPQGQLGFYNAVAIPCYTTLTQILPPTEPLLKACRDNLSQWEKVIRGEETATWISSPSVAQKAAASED

D(2) dopamine receptor, sequence (P14416 whole entry): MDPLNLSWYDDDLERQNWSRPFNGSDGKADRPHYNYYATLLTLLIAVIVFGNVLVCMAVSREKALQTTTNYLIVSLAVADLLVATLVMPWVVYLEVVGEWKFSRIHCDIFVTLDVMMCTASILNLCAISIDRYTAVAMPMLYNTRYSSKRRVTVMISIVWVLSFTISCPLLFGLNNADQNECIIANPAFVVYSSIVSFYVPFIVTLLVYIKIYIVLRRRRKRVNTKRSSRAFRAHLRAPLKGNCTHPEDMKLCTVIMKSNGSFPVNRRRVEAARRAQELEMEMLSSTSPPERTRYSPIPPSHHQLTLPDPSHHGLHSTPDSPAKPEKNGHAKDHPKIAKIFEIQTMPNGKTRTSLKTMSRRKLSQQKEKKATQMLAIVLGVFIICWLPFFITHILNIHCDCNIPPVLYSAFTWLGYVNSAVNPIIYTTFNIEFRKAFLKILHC

Q: For COc1cc2ncnc(N3CCC(CN4CCN(c5ccc(Cl)cc5)CC4)C3)c2cc1OC (stereo not drawn), which Tmax [1] is on record?
A: 480 min

Q: What about the fraction unbound [2] of the same compound?
A: 0.018

Q: What about the Tmax [3] of the same compound?
A: 30 min

Q: And the EC50 [4]?
A: 12000 nM

Q: And the Cmax [5]?
A: 327 ng/mL

Q: What about the Cmax [6] of the same compound?
A: 330 ng/mL

Q: What about the Vd/F [7] of the same compound?
A: 0.272 L/kg

Q: And the Tmax [8]?
A: 30 min

Q: What about the solubility [9] of the same compound?
A: 187 µM (≈ 87.5 µg/mL)

Q: And the half-life [10]?
A: 49 min

Q: And the Ki (D(2) dopamine receptor)?
A: > 1000 nM

Q: What about the efflux ratio [11] of the same compound?
A: 0.19

Q: What about the Activity (Mus musculus) of the same compound?
A: 50%

Q: What about the Ki [12] of the same compound?
A: 363 nM

Q: What about the Cmax [13] of the same compound?
A: 4.1 ng/mL

Q: And the pKi [14]?
A: 6.11

Q: What about the Activity (Erythrocyte) of the same compound?
A: Non-Toxic

Q: And the inhibition [15]?
A: 21%
